Assay results from PubChem BioAssay (NCI).
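In this assay, cells in 96-well plates receive the compound at five concentrations for 48 hours. Endpoints are linearly interpolated between the surrounding concentrations. At the GI50, growth is halved. The concentration for full growth arrest is given as TGI.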

Experiments:
Assay in all cases: NCI-60 cell line screen, 48 h
[1] = system: 786-0 renal
[2] = system: A498 renal
[3] = system: A549 NSCLC
[4] = system: BT-549 breast
[5] = system: COLO 205 colon
[6] = system: DU-145 prostate
[7] = system: HCC-2998 colon
[8] = system: HCT-116 colon
[9] = system: HOP-92 NSCLC
[10] = system: HS 578T breast
[11] = system: HT29 colon
[12] = system: K-562 leukemia
[13] = system: M14 melanoma
[14] = system: MDA-MB-231 breast
[15] = system: MDA-MB-435
[16] = system: NCI-H23 lung
[17] = system: NCI/ADR-RES ovarian
[18] = system: OVCAR-3 ovarian
[19] = system: OVCAR-4 ovarian
[20] = system: OVCAR-5 ovarian
[21] = system: PC-3 prostate
[22] = system: SF-268 CNS
[23] = system: SF-539 CNS
[24] = system: SK-MEL-2 melanoma
[25] = system: SK-MEL-28 melanoma
[26] = system: SK-MEL-5 melanoma
[27] = system: SK-OV-3 ovarian
[28] = system: SN12C renal
[29] = system: SNB-75 CNS
[30] = system: SW-620 colon
[31] = system: TK-10 renal
[32] = system: U251 CNS
[33] = system: UACC-257 melanoma
[34] = system: UO-31 renal
[35] = system: ACHN renal
[36] = system: CAKI-1 renal
[37] = system: CCRF-CEM leukemia
[38] = system: HCT-15 colon
[39] = system: HL-60(TB) leukemia
[40] = system: HOP-62 NSCLC
[41] = system: IGROV1 ovarian
[42] = system: KM12 colon
[43] = system: LOX IMVI melanoma
[44] = system: MALME-3M melanoma
[45] = system: MOLT-4 leukemia
[46] = system: NCI-H226 lung
[47] = system: NCI-H460 lung
[48] = system: NCI-H522 lung
[49] = system: OVCAR-8 ovarian
[50] = system: RPMI-8226 leukemia
[51] = system: RXF 393 renal
[52] = system: SF-295 CNS
[53] = system: SNB-19 CNS
[54] = system: SR leukemia
[55] = system: T-47D breast
[56] = system: UACC-62 melanoma

Structure (SMILES): Fc1ccc2c(c1)c(-c1nc(-c3c[nH]c4ncccc34)cs1)cn2CCCN1CCCCC1
- GI50 [1]: 1.65 µM
- TGI [1]: 3.1 µM
- GI50 [2]: 2.57 µM
- TGI [2]: 6.48 µM
- GI50 [3]: 1.91 µM
- TGI [3]: 3.62 µM
- GI50 [4]: 3.72 µM
- TGI [4]: 14.5 µM
- GI50 [5]: 1.73 µM
- TGI [5]: 3.48 µM
- GI50 [6]: 1.74 µM
- TGI [6]: 3.26 µM
- GI50 [7]: 1.7 µM
- TGI [7]: 3.14 µM
- GI50 [8]: 1.75 µM
- TGI [8]: 3.3 µM
- GI50 [9]: 1.47 µM
- TGI [9]: 2.95 µM
- GI50 [10]: 2.59 µM
- TGI [10]: 7.69 µM
- GI50 [11]: 1.68 µM
- TGI [11]: 3.24 µM
- GI50 [12]: 1.72 µM
- TGI [12]: 3.6 µM
- GI50 [13]: 1.76 µM
- TGI [13]: 3.48 µM
- GI50 [14]: 1.69 µM
- TGI [14]: 3.18 µM
- GI50 [15]: 1.66 µM
- TGI [15]: 3.17 µM
- GI50 [16]: 1.64 µM
- TGI [16]: 3.13 µM
- GI50 [17]: 1.64 µM
- TGI [17]: 3.15 µM
- GI50 [18]: 1.63 µM
- TGI [18]: 3.12 µM
- GI50 [19]: 1.83 µM
- TGI [19]: 4.01 µM
- GI50 [20]: 1.61 µM
- TGI [20]: 3.1 µM
- GI50 [21]: 1.69 µM
- TGI [21]: 3.2 µM
- GI50 [22]: 1.64 µM
- TGI [22]: 3.42 µM
- GI50 [23]: 1.67 µM
- TGI [23]: 3.1 µM
- GI50 [24]: 1.96 µM
- TGI [24]: 4.25 µM
- GI50 [25]: 1.75 µM
- TGI [25]: 3.26 µM
- GI50 [26]: 1.76 µM
- TGI [26]: 3.17 µM
- GI50 [27]: 1.81 µM
- TGI [27]: 3.43 µM
- GI50 [28]: 1.74 µM
- TGI [28]: 3.31 µM
- GI50 [29]: 1.34 µM
- TGI [29]: 2.98 µM
- GI50 [30]: 1.92 µM
- TGI [30]: 3.75 µM
- GI50 [31]: 1.85 µM
- TGI [31]: 3.42 µM
- GI50 [32]: 1.82 µM
- TGI [32]: 3.33 µM
- GI50 [33]: 1.92 µM
- TGI [33]: 3.7 µM
- GI50 [34]: 1.28 µM
- TGI [34]: 2.64 µM

Structure (SMILES): CCOc1ccc(-c2nonc2NC(=O)c2cccc(C)c2)cc1OCC
- GI50 [1]: 49.7 µM
- TGI [1]: > 100 µM
- GI50 [3]: > 100 µM
- TGI [3]: > 100 µM
- GI50 [35]: > 100 µM
- TGI [35]: > 100 µM
- GI50 [4]: > 100 µM
- TGI [4]: > 100 µM
- GI50 [36]: 74 µM
- TGI [36]: > 100 µM
- GI50 [37]: > 100 µM
- TGI [37]: > 100 µM
- GI50 [5]: > 100 µM
- TGI [5]: > 100 µM
- GI50 [6]: > 100 µM
- TGI [6]: > 100 µM
- GI50 [7]: > 100 µM
- TGI [7]: > 100 µM
- GI50 [8]: 35.7 µM
- TGI [8]: > 100 µM
- GI50 [38]: > 100 µM
- TGI [38]: > 100 µM
- GI50 [39]: > 100 µM
- TGI [39]: > 100 µM
- GI50 [40]: > 100 µM
- TGI [40]: > 100 µM
- GI50 [9]: 21.1 µM
- TGI [9]: 59.1 µM
- GI50 [10]: > 100 µM
- TGI [10]: > 100 µM
- GI50 [11]: > 100 µM
- TGI [11]: > 100 µM
- GI50 [41]: 67 µM
- TGI [41]: > 100 µM
- GI50 [12]: > 100 µM
- TGI [12]: > 100 µM
- GI50 [42]: > 100 µM
- TGI [42]: > 100 µM
- GI50 [43]: > 100 µM
- TGI [43]: > 100 µM
- GI50 [44]: > 100 µM
- TGI [44]: > 100 µM
- GI50 [14]: 19.5 µM
- TGI [14]: 62.5 µM
- GI50 [15]: > 100 µM
- TGI [15]: > 100 µM
- GI50 [45]: > 100 µM
- TGI [45]: > 100 µM
- GI50 [46]: > 100 µM
- TGI [46]: > 100 µM
- GI50 [16]: 35.8 µM
- TGI [16]: > 100 µM
- GI50 [47]: > 100 µM
- TGI [47]: > 100 µM
- GI50 [48]: > 100 µM
- TGI [48]: > 100 µM
- GI50 [17]: > 100 µM
- TGI [17]: > 100 µM
- GI50 [18]: > 100 µM
- TGI [18]: > 100 µM
- GI50 [19]: > 100 µM
- TGI [19]: > 100 µM
- GI50 [20]: > 100 µM
- TGI [20]: > 100 µM
- GI50 [49]: > 100 µM
- TGI [49]: > 100 µM
- GI50 [21]: > 100 µM
- TGI [21]: > 100 µM
- GI50 [50]: > 100 µM
- TGI [50]: > 100 µM
- GI50 [51]: > 100 µM
- TGI [51]: > 100 µM
- GI50 [22]: 90.5 µM
- TGI [22]: > 100 µM
- GI50 [52]: 30.4 µM
- TGI [52]: > 100 µM
- GI50 [23]: 35.5 µM
- TGI [23]: > 100 µM
- GI50 [24]: > 100 µM
- TGI [24]: > 100 µM
- GI50 [25]: > 100 µM
- TGI [25]: > 100 µM
- GI50 [26]: > 100 µM
- TGI [26]: > 100 µM
- GI50 [27]: > 100 µM
- TGI [27]: > 100 µM
- GI50 [28]: > 100 µM
- TGI [28]: > 100 µM
- GI50 [53]: 34.9 µM
- TGI [53]: > 100 µM
- GI50 [29]: 14.5 µM
- TGI [29]: 52.3 µM
- GI50 [54]: > 100 µM
- TGI [54]: > 100 µM
- GI50 [30]: > 100 µM
- TGI [30]: > 100 µM
- GI50 [55]: > 100 µM
- TGI [55]: > 100 µM
- GI50 [31]: 22.7 µM
- TGI [31]: 46.8 µM
- GI50 [32]: 30.5 µM
- TGI [32]: > 100 µM
- GI50 [33]: > 100 µM
- TGI [33]: > 100 µM
- GI50 [56]: > 100 µM
- TGI [56]: > 100 µM
- GI50 [34]: > 100 µM
- TGI [34]: > 100 µM
